Assay results as given in patent publication US20230054194A1, “Methods of Treating Cancer” (ARIAGEN, INC., priority 2018, published 2023).

Columns and labels:
H22 = H22 subcutaneous syngeneic liver cancer mouse model (Study 11), tumor growth inhibition; type: in vivo, mouse (BALB/C)
Experimental: (§1) In this example, the in vivo anti-tumor efficacy of ARI-001, ARI-002, ARI-003, and ARI-143 and their combinations with an anti-PD-1 antibody was evaluated using a panel of twelve subcutaneous syngeneic mouse tumor models.
(§2) Eleven subcutaneous syngeneic mouse tumor models were generated by innoculating female BALB/C or C57BL/6 mice with cancer cells at their right lower or right front flank followed by randomization as detailed in Table 4 below.
(§3) A solution of a rat monoclonal anti-mouse PD-1 antibody (isotype IgG2a, κ) at a concentration of 6.61 mg/ml was obtained from BioXcell (InVivoMAb anti-mouse PD-1 (CD279), Clone RMP1-14, Cat #BE0146)) and store at 4° C. The antibody solution was diluted with PBS to obtain a 1 mg/ml dosing solution.
(§4) ARI-001, ARI-002, and ARI-003 powder was stored at −20° C. The powder of each compound was dissolved in DMSO to obtain dosing solutions at 106.7, 80, and 53.33 mg/ml for administration to mice at 160, 120, and 80 mg/kg, respectively. ARI-143 was similarly prepared.
(§5) Twelve studies using the twelve subcutaneous syngeneic mouse tumor models were performed. In each study, 80 mice were enrolled and randomly allocated to eight different study groups, with 10 mice in each study group. The mean tumor size at randomization was approximately 80-120 mm^3 (around 100 mm^3). Randomization was performed based on “Matched distribution” randomization method (StudyDirector™ software, version 3.1.399.19). […] All the drugs and vehicle controls were injected to the mice intraperitoneally.
(§6) After tumor cell inoculation, the animals were checked daily for morbidity and mortality. At the time of routine monitoring, the animals were checked for any effects of tumor growth and treatments on behavior such as mobility, food and water consumption, body weight gain/loss (body weights were measured twice or three times per week after randomization), and any other abnormalities. Mortality and observed clinical signs were recorded for individual animals. Tumor volumes were measured twice or three times weekly after randomization in two dimensions using a caliper, and the volume was expressed in mm^3 using the formula: […]
(§7) where V is tumor volume, L is tumor length (the longest tumor dimension) and W is tumor width (the longest tumor dimension perpendicular to L).
(§8) The study was terminated when the mean tumor volume (MTV) in the vehicle group reached a value of 2,000 mm^3. Tumor growth inhibition (TGI) is an indication of antitumor activity, and expressed as: […]
(§9) where T and C are the MTV (or weight) of the treated and control groups, respectively, on a given day. Statistical analysis of the difference in MTV among the groups was conducted using the data collected on the day when the MTV of the vehicle group reached the humane endpoints, so that TGI could be derived for all or most mice enrolled in the study.
(§10) Statistical analysis of differences in MTV among the groups was conducted by Independent-Samples T Test using the data collected. All data were analyzed with SPSS (Statistical Product and Service Solutions) version 18.0 (IBM, Armonk, N.Y., U.S.). P-values were rounded to three decimal places, with the exception that raw P-values less than 0.001 were stated as P<0.001. All tests were two-sided. P<0.05 was considered to be statistically significant.
FIG. 70 is a graph showing the mean tumor volume on different study days in the study groups as indicated according to Study 11 (H22). The study end day was Day 18.

B16F10 = B16F10 subcutaneous syngeneic melanoma mouse model (Study 10), tumor growth inhibition; type: in vivo, mouse (C57BL/6)
Experimental: as §1, §2, §3, §4, §5, §6, §7, §8, §9, §10
FIG. 69 is a graph showing the mean tumor volume on different study days in the study groups as indicated according to Study 10 (B16F10). The study end day was Day 19.

MC38 = MC38 subcutaneous syngeneic colon cancer mouse model (Study 1), tumor growth inhibition; type: in vivo, mouse (C57BL/6)
Experimental: as §1, §2, §3, §4, §5, §6, §7, §8, §9, §10
FIG. 60 is a graph showing the mean tumor volume on different study days in the study groups as indicated according to Study 1 (MC38). The study end day was Day 26.

RM-1 = RM-1 subcutaneous syngeneic prostate cancer mouse model (Study 7), tumor growth inhibition; type: in vivo, mouse (C57BL/6); details: RM-1 model, study end day Day 19
Experimental: as §1, §2, §3, §4, §5, §6, §7, §8, §9, §10
FIG. 66 is a graph showing the mean tumor volume on different study days in the study groups as indicated according to Study 7 (RM-1). The study end day was Day 19.

CT26 = experiment: CT-26 subcutaneous syngeneic colon cancer mouse model (Study 4), tumor growth inhibition; type: in vivo, mouse (BALB/C); details: CT-26 model, i.p.; ARI compounds 160 mg/kg QD × 15 doses, Anti-PD-1 10 BIW × 5 doses; study end day Day 23
Experimental: as §1, §2, §3, §4, §5, §6, §7, §8, §9, §10
FIG. 63 is a graph showing the mean tumor volume on different study days in the study groups as indicated according to Study 4 (CT-26). The study end day was Day 23.

A20 = A20 subcutaneous syngeneic lymphoma mouse model (Study 5), tumor growth inhibition; type: in vivo, mouse (BALB/C); details: A20 model, i.p.; ARI compounds 160 mg/kg QD × 14 doses, Anti-PD-1 10 BIW × 4 doses; study end day Day 26
Experimental: as §1, §2, §3, §4, §5, §6, §7, §8, §9, §10
FIG. 64 is a graph showing the mean tumor volume on different study days in the study groups as indicated according to Study 5 (A20). The study end day was Day 26.

Hepa1-6 = Hepa1-6 subcutaneous syngeneic liver cancer mouse model (Study 9), tumor growth inhibition; type: in vivo, mouse (C57BL/6)
Experimental: as §1, §2, §3, §4, §5, §6, §7, §8, §9, §10
FIG. 68 is a graph showing the mean tumor volume on different study days in the study groups as indicated according to Study 9 (Hepal-6). The study end day was Day 26.

Renca = Renca subcutaneous syngeneic kidney cancer mouse model (Study 8), tumor growth inhibition; type: in vivo, mouse (BALB/C)
Experimental: as §1, §2, §3, §4, §5, §6, §7, §8, §9, §10
FIG. 67 is a graph showing the mean tumor volume on different study days in the study groups as indicated according to Study 8 (Renca). The study end day was Day 28.

Pan02 = Pan02 subcutaneous syngeneic pancreatic cancer mouse model (Study 3), tumor growth inhibition; type: in vivo, mouse (C57BL/6)
Experimental: as §1, §2, §3, §4, §5, §6, §7, §8, §9, §10
FIG. 62 is a graph showing the mean tumor volume on different study days in the study groups as indicated according to Study 3 (Pan02). The study end day was Day 32.

LL/2 = LL/2 subcutaneous syngeneic lung cancer mouse model (Study 6), tumor growth inhibition; type: in vivo, mouse (C57BL/6)
Experimental: as §1, §2, §3, §4, §5, §6, §7, §8, §9, §10
FIG. 65 is a graph showing the mean tumor volume on different study days in the study groups as indicated according to Study 6 (LL/2). The study end day was Day 32.

EMT-6 = EMT-6 subcutaneous syngeneic breast cancer mouse model (Study 2 and Study 12), tumor growth inhibition; type: in vivo, mouse (BALB/C); details: EMT-6 syngeneic breast cancer model
Experimental: as §1, §2, §3, §4, §5, §6, §7, §8, §9, §10
FIG. 61 is a graph showing the mean tumor volume on different study days in the study groups as indicated according to Study 2 (EMT-6). The study end day was Day 27.

[1] = MC38 model, i.p., ARI compounds 160 mg/kg QD × 17 doses, Anti-PD-1 10 BIW × 5 doses, study end day Day 26
[2] = Pan02 model, i.p., ARI compounds 160 mg/kg QD × 28 doses, Anti-PD-1 10 BIW × 8 doses, study end day Day 32
[3] = Pan02 syngeneic pancreatic cancer model

## NC(=O)c1csc(C(=O)c2c[nH]c3ccccc23)n1 [ARI-003]
H22; H22 model, Mean ± SEM, study end day Day 18, in mm³
  Tumor size: 1547.54 ± 100.51
H22; H22 model, study end day Day 18
  TGI(%): 31%
H22; H22 syngeneic liver cancer model
  anti-tumor potency of the compound combined with anti-PD-1 antibody, compared to being used alone: statistically significant increase
B16F10; B16F10 model, Mean ± SEM, study end day Day 19, in mm³
  Tumor size: 2234.18 ± 248.14
B16F10; B16F10 model, study end day Day 19
  TGI(%): 24%
B16F10; B16F10 syngeneic melanoma model
  anti-tumor potency of anti-PD-1 antibody combined with the compound, compared to the antibody alone or the vehicle: statistically significant increase
MC38; [1]
  TGI(%): 35%
  Tumor size (Mean ± SEM): 1691.11 ± 123.57 mm^3
MC38; MC38 syngeneic colon cancer model
  anti-tumor potency of anti-PD-1 antibody combined with the compound, compared to the antibody alone or the vehicle: statistically significant increase
RM-1; Mean ± SEM, in mm³
  Tumor size: 1703.05 ± 39.79
RM-1
  TGI(%): 43%
CT26
  TGI(%): 64%
  Tumor size (Mean ± SEM): 836.51 ± 110.61 mm^3
A20
  TGI(%): 54%
  Tumor size (Mean ± SEM): 1206.83 ± 121.06 mm^3
Hepa1-6; Hepa1-6 model, Mean ± SEM, study end day Day 26, in mm³
  Tumor size: 1251.31 ± 158.72
Hepa1-6; Hepa1-6 model, study end day Day 26
  TGI(%): 23%
Hepa1-6; Hepa1-6 syngeneic liver cancer model
  anti-tumor potency of the compound combined with anti-PD-1 antibody, compared to being used alone: statistically significant increase
Renca; Renca model, Mean ± SEM, study end day Day 28, in mm³
  Tumor size: 1240.04 ± 90.09
Renca; Renca model, study end day Day 28
  TGI(%): 42%
Renca; Renca syngeneic kidney cancer model
  anti-tumor potency of anti-PD-1 antibody combined with the compound, compared to the antibody alone: statistically significant increase
Pan02; [2]
  TGI(%): 62%
  Tumor size (Mean ± SEM): 340.16 ± 49.76 mm^3
Pan02; [3]
  anti-tumor potency of anti-PD-1 antibody combined with the compound, compared to the antibody alone: statistically significant increase
  anti-tumor potency of the compound combined with anti-PD-1 antibody, compared to being used alone: statistically significant increase
LL/2; LL/2 model, Mean ± SEM, study end day Day 32, in mm³
  Tumor size: 839.79 ± 99.43
LL/2; LL/2 model, study end day Day 32
  TGI(%): 62%
LL/2; LL/2 syngeneic lung cancer model
  anti-tumor potency of anti-PD-1 antibody combined with the compound, compared to the antibody alone or the vehicle: statistically significant increase
EMT-6
  anti-tumor potency of anti-PD-1 antibody combined with the compound, compared to the antibody alone or the vehicle: statistically significant increase
